Here are results for 1 compound from publication PMC6844382, “Design, synthesis and evaluation of quinolinone derivatives containing dithiocarbamate moiety as multifunctional AChE inhibitors for the treatment of Alzheimer’s disease” (Journal of Enzyme Inhibition and Medicinal Chemistry, 2019).

Series [1] has as its target T1, eqBuChE (Equus caballus, UniProt P81908).
T1 construct: eqBuChE (from equine serum); purchased Sigma-Aldrich (St. Louis, MO, USA); host or cells: equine serum
The experiment in a line: In vitro inhibition of eqBuChE (Ellman method). It counts as biochemical, equine. The note with it: read-out: eqBuChE Inhibition (%).
Method: (§1) The in vitro inhibitory activities of test compounds against AChE and BuChE were determined by the spectrophotometric method of Ellman[25]. […] For each assay, 160 μL of 1.5 mM DTNB, 50 μL of AChE (0.22 U/mL for eeAChE; 0.05 U/mL for hAChE) or eqBuChE (0.12 U/mL) were incubated with 10 μL of different concentrations of test compounds at 37 °C for 6 min.

A short description of series [2]: in vitro. Conditions: PAMPA.
Method: (§2) Afterwards, the acceptor filter plate was carefully placed on the donor plate to make the coated membrane touch both donor solution and acceptor buffer. […] Pe was calculated by the following expression: Pe = {−VdVa/[(Vd + Va)At]}ln (1-drugacceptor/drugequilibrium), where Vd is the volume of donor well, Va is volume in acceptor well, A is the filter area, t is the permeation time, drugacceptor is the absorbance obtained in the acceptor well and drugequilibrium is the theoretical equilibrium absorbance. Each compound was analysed at five wavelengths in four wells at least three independent runs, and the results were expressed as mean ± SD.
In series [3] the target is T2, eeAChE (Electrophorus electricus, UniProt O42275).
T2 construct: eeAChE (from electric eel); purchased Sigma-Aldrich (St. Louis, MO, USA); host or cells: electric eel
In words: In vitro inhibition of eeAChE (Ellman method). The format is biochemical, electric eel.
Method: as §1

The conditions of series [4]: from PAMPA-BBB Pe.
Method: as §2
The target of series [5] is T3, self-induced Aβ1-42 aggregation (Homo sapiens, UniProt P05067).
T3 construct: Aβ1-42 was obtained from Royobiotech Co., Ltd (Shanghai, China); purchased Royobiotech Co., Ltd (Shanghai, China)
In words: Inhibition of self-induced Aβ1-42 aggregation (ThT assay). It counts as biochemical. The note with it: read-out: Inhibition of Aβ1–42 aggregation (%) Self-induced. On the procedure:
The inhibitory activities of compounds 4c-f and 9a-b on self-induced Aβ1-42 aggregation were also measured by the ThT assay. HFIP and ThT were purchased from TCI (Shanghai) Development. Aβ1-42 was obtained from Royobiotech Co., Ltd (Shanghai, China). The monomeric Aβ1-42 samples were prepared by HFIP and diluted with a 50 mM phosphate buffer (pH 7.4) to give a 25 μM solution. The test compound was dissolved in DMSO (250 μM) for storage and needed not to be diluted prior to use. […]. Then, 200 μL of 5 μM ThT in 50 mM glycine-NaOH buffer (pH 8.0) was added, and the percent inhibition was calculated by the method same as that of AChE-induced Aβ1–42 experiment.

Series [6] deals with T4, hAChE (Homo sapiens, UniProt P22303). The experiment in a line: Kinetic study of hAChE inhibition (Lineweaver-Burk). Further details: Acetylcholinesterase (AChE, from electric eel and human erythrocytes); purchased Sigma-Aldrich (St. Louis, MO, USA). It counts as biochemical. On the procedure:
To determine the inhibition mechanism of present compounds, compound 4c was taken for kinetic analysis by Ellman’s method. Three concentrations of 4c were selected for the study, and hAChE was chosen as enzyme source. Following a similar method mentioned above in enzyme inhibition assay, Lineweaver–Burk reciprocal plots were constructed by plotting 1/velocity against 1/[substrate] at varying concentrations of the substrate acetylthiocholine (0.05 – 0.5 mM). All measurements were performed in triplicate and data analysis was performed with Graph Pad Prism 4.03 software (San Diego, CA, USA).

Series [7] deals with T5, AChE-induced Aβ1-42 aggregation (Electrophorus electricus, UniProt O42275).
T5 construct: eeAChE (from electric eel); purchased eeAChE: Sigma-Aldrich (St. Louis, MO, USA); Aβ1-42: Royobiotech Co., Ltd (Shanghai, China)
In words: Inhibition of AChE-induced Aβ1-42 aggregation (ThT assay). It counts as biochemical. The note with it: inhibitor 100 μM; thioflavin-T fluorescence.
Method: 1, 1, 1, 3, 3, 3-hexafluoro-2-propanol (HFIP) and Thioflavin T (ThT) were obtained from TCI (Shanghai) Development. β-Amyloid1-42 (Aβ1-42), supplied as trifluoroacetate salt, and eeAChE were purchased from Royobiotech Co., Ltd (Shanghai, China) and Sigma-Aldrich (St. Louis, MO, USA), respectively. For co-incubation experiments, aliquots of Aβ1-42 peptide and AChE in presence or absence of the test compounds were incubated for 48 h at 37 °C. […] The percent inhibition of the AChE-induced Aβ aggregation due to the presence of inhibitor was calculated by the following formula: 100 – (IFi/IFo*100), where IFi and IFo are the fluorescence intensities obtained for Aβ1-42 aggregation in the presence and in the absence of inhibitor, respectively. Each assay was run in triplicate and each reaction was repeated at least three independent times.

Series [8] concerns the target T4, hAChE. In words: In vitro inhibition of hAChE (Ellman method). It counts as biochemical. Further details: Acetylcholinesterase (AChE, from electric eel and human erythrocytes); purchased Sigma-Aldrich (St. Louis, MO, USA); host or cells: human erythrocytes.
Method: as §1
The test system of series [9] is human neuroblastoma SH-SY5Y cells. The experiment in a line: Cytotoxicity on SH-SY5Y cells (MTT assay). It counts as cell-based. Conditions: 12.5–100 µM, 24 h. On the procedure:
The cytotoxicity of test compound on the human neuroblastoma SH-SY5Y cells was evaluated by MTT assay. The SH-SY5Y cells were grown in a 1:1 mixture of Eagle's minimum essential medium (EMEM) and ham's F-12 medium supplemented with 10% foetal bovine serum (FBS), 100 U/mL penicillin and […] streptomycin in 5% CO2 at 37 °C. For assay, cells were seeded into 96-well plates at a density of 10000 cells/well and treated with compound 4c for 24 h. After this treatment, 20 μL of MTT at 37 °C was added. Four hours later, the medium was removed, and 200 μL of DMSO was added to dissolve the formazan crystal formed. The absorbance was measured using a microculture plate reader with a test wavelength of 570 nm and a reference wavelength of 630 nm. Results are expressed as the mean ± SD of three independent experiments.

Series [10] relates to Kunming mice. In words: Acute oral toxicity study. It counts as in vivo. Conditions: oral, 625, 1250 and 2500 mg/kg, observed 14 days. On the procedure: A total of 40 Kunming mice (half male and half female) were used to determine the acute toxicity of compound 4c[31]^,[32]. All mice weighting 18–25 g were obtained from Hunan SJA Laboratory Animal Co., Ltd. and randomly divided into corresponding groups. They were maintained under a 12 h light/dark cycle and allowed free access to tap water and standard laboratory chow. The room was maintained at temperature of 23 ± 2 °C with a relative humidity of 55 ± 5%. Prior to dosing, all animals were acclimated to this environment for 5 days. Compound 4c was suspended in 0.5% carboxymethyl cellulose sodium (CMC-Na) salt solution and given via oral administration to the divided experimental groups (0, 625, 1250 and 2500 mg/kg, n = 10 per group). After administration, animals were observed continuously for the first 4 h for any abnormal behavioural changes or deaths, then intermittently for the next 24 h, and occasionally thereafter for 14 days for the onset of any delayed effects. On the 14th day, all mice were sacrificed after being anaesthetized by ether, and the possible toxic damage to liver, heart and kidneys was examined macroscopically.

Each structure is given as a SMILES string. “Also recorded” adds a separate entry of the source.

T4 sequence (P22303 32-617 isoform P22303-2 limits assumed): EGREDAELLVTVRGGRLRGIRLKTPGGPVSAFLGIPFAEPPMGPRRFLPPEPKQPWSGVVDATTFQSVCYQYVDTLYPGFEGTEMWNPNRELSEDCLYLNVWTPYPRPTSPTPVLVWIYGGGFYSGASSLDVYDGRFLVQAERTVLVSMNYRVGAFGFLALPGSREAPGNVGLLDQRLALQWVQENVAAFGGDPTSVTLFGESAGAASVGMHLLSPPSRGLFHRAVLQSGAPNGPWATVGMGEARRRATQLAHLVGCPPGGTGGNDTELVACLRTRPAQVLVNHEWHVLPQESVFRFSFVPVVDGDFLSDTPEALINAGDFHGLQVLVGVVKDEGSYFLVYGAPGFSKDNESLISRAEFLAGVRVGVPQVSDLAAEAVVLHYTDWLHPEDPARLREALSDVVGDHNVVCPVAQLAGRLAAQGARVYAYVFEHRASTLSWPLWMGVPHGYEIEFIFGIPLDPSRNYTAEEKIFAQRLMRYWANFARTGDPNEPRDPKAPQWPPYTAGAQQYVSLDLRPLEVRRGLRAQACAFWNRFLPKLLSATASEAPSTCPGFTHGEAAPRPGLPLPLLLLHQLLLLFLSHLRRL
T2 sequence (O42275 24-633): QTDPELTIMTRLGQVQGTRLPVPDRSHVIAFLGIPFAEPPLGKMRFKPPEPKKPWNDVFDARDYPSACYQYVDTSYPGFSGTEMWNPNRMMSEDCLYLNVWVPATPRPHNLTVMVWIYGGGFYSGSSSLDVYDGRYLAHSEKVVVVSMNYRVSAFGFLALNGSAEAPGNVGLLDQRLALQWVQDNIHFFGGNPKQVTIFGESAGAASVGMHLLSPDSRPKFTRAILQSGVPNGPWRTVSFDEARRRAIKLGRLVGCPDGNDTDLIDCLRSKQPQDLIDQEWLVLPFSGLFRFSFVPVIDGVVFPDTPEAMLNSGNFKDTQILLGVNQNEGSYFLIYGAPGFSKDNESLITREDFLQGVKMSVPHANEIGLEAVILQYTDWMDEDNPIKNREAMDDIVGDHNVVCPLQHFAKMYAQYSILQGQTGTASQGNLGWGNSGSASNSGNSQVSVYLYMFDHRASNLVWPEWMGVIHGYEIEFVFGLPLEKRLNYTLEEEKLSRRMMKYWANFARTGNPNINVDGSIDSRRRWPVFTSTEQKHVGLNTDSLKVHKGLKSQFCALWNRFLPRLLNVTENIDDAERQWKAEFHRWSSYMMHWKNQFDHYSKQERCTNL
T1 sequence (P81908 whole entry): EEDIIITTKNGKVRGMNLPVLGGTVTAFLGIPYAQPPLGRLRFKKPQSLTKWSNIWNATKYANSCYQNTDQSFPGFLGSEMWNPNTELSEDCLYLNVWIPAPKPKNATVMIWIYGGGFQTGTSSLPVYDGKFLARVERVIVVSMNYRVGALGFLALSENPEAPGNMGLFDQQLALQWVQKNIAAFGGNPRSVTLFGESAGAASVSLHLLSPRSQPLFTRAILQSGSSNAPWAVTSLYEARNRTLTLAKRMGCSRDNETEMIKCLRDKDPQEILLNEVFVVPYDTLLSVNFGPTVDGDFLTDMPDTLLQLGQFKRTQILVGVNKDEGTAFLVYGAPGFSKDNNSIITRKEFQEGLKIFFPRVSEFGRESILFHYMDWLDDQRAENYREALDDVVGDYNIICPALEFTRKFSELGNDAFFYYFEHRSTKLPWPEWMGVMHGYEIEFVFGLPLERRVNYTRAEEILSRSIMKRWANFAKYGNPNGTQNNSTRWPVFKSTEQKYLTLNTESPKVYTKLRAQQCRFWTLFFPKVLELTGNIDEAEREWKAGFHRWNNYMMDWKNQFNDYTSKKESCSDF
T3 sequence (P05067 672-713): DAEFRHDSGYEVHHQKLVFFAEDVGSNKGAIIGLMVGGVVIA
T5 sequence (O42275 24-633): as the sequence (O42275 24-633) above

In the case of `O=c1ccc2ccc(OCCCCSC(=S)N3CCCCC3)cc2[nH]1` [4c, 4-((2-oxo-1,2-dihydroquinolin-7-yl)oxy)butyl piperidine-1-carbodithioate], the inhibition at 10 µM in series [1] came out at 45.4 ± 8.34%. The Papp at 18 h, 25 μg/mL in series [2] stood at 8.91 ± 2.03 ×10⁻⁶ cm/s. In addition, the IC50 in series [3] amounted to 220 ± 30 nM; in series [8], 160 ± 20 nM. In addition, the “times more potent than galanthamine on AChE” value in series [3] (ratio of eeAChE IC50 values) is given as 7.5 times. For the same compound, the “Prediction of penetration into CNS” value in series [4] is “CNS+ (CNS + is predicted as high BBB permeation with Pe (×10^6 cm/s) > 3.33)”. Further, the inhibition at 25 µM in series [5] is 30.7 ± 6.54%. Further, the type of inhibition result in [6] (Lineweaver-Burk plots, hAChE, 0.1, 0.2, 0.4 μM inhibitor) is “mixed-type inhibitor; also recorded: mixed-type inhibition”. Further, in [6] (replots of slope versus concentration of 4c, hAChE, read-out: competitive inhibition constant Ki), the Ki came to 225 nM. In addition, the inhibition at 100 µM in series [7] is 29 ± 2.06%. Also, in [8] (ratio of hAChE IC50 values), the “fold more potent on hAChE than tacrine” value is about 3 fold. In addition, the “effect on cell viability (cytotoxicity)” value in [9] is on record as “did not show a significant effect on cell viability; also recorded: negligible toxicity; also recorded: no toxicity”. Besides, the acute toxicity entry in [10] is given as “no evident toxicity signs; also recorded: no significant acute toxicity; also recorded: well tolerated”.
